Data from patent US20070190523A1 (priority 2002, published 2007).
Where two headings read alike, the source gives them in different places.

Columns and labels:
WT = WT (Human immunodeficiency virus type 1 group M subtype B, UniProt P04585); assay: cell-based; design: species or system HIV
[1] = system: wild-type HIV-1 strain IIIB; assay: microbe, parasite or virus in culture; type: cell-based
84V90M = 84V90M (Human immunodeficiency virus type 1 group M subtype B, UniProt P04585, I572V/L578M); assay: cell-based; design: species or system HIV; settings: MT-4, 84V90M; read-out: Cell-based assay (MT-4) EC50/nM 84V90M
[2] = system: recombinant HIV-1 strains with resistance mutations in the protease gene; assay: Cross-Resistance Profile Assay, whole panel; type: cell-based; settings: {}
[3] = system: mutant HIV-1 with I84V/L90M mutations; type: cell-based
[4] = Human immunodeficiency virus 1, IIIB, MT2
[5] = fold difference in EC50 vs wild type, class symbols

CCOP(=O)(COc1cccc(CN2C(=O)N(Cc3ccc4[nH]nc(N)c4c3)C(Cc3ccccc3)C(O)C(O)C2Cc2ccccc2)c1)OCC (centres unmarked)
EC50 (WT): 665 nM

Cc1ccc(C(=O)N[C@@H](Cc2ccc(OCP(=O)(Oc3ccccc3)Oc3ccccc3)cc2)[C@H](O)CN(CC(C)C)S(=O)(=O)c2ccc(N)cc2)cc1O
EC50 ([1]; read-out: EC50): 500 to 5000 nM

Nc1n[nH]c2ccc(CN3C(=O)N(Cc4cccc(OCP(=O)(OCc5ccccc5)OCc5ccccc5)c4)C(Cc4ccccc4)C(O)C(O)C3Cc3ccccc3)cc12 (centres unmarked)
EC50 (WT): 898 nM

CCOP(=O)(COc1ccc(CC2C(O)C(O)C(Cc3ccc(O)cc3)N(Cc3ccc(O)cc3)C(=O)N2Cc2ccc(O)cc2)cc1)OCC (centres unmarked) [OH, Ph-pOH, OCH2PO3Et2]
EC50 (WT): 285 nM
EC50 (84V90M): 1910 nM

Nc1n[nH]c2ccc(CN3C(=O)N(CCCCOCP(=O)(O)O)C(Cc4ccccc4)C(O)C(O)C3Cc3ccccc3)cc12 (centres unmarked) [CH2OCH2PO3H2]
EC50 (WT): 1760 nM

CC(C)(C)NC(=O)[C@@H]1C[C@@H]2CCCC[C@@H]2CN1C[C@@H](O)[C@H](Cc1ccccc1)NC(=O)[C@H](CC(N)=O)NC(=O)c1ccc2ccccc2n1 [Saquinavir]
Total No. of Resistant Viruses [2]: 4

CCOP(=O)(COc1ccc(CC2C(O)C(O)C(Cc3ccccc3)N(Cc3ccccc3)C(=O)N2Cc2ccccc2)cc1)OCC (centres unmarked)
EC50 (WT): 107 nM
EC50 (84V90M): 2460 nM

Nc1n[nH]c2ccc(CN3C(=O)N(Cc4cccc(OCP(=O)(Oc5ccccc5)Oc5ccccc5)c4)C(Cc4ccccc4)C(O)C(O)C3Cc3ccccc3)cc12 (centres unmarked) [m-OCH2PO3Ph2]
EC50 (WT): 1350 nM

COc1ccc(S(=O)(=O)N(CC(C)C)CC(O)C(Cc2ccc(C)cc2)NC(=O)OC2COC3OCCC23)cc1 (centres unmarked)
EC50 [1, 4]: < 50 nM
I84V/L90M fold change ([3]; I84V/L90M mutant): + (>3 to ≦10)

CCOP(=O)(CCCNC(=O)c1cccc(CN2C(=O)N(Cc3cccc(N)c3)C(Cc3ccccc3)C(O)C(O)C2Cc2ccccc2)c1)OCC (centres unmarked)
EC50 (WT): 176 nM

Nc1n[nH]c2ccc(CN3C(=O)N(Cc4cccc(O)c4)C(Cc4ccccc4)C(O)C(O)C3Cc3ccccc3)cc12 (centres unmarked) [m-OH]
EC50 (WT): 151 nM

CC(C)(C)NC(=O)[C@@H]1CN(Cc2cccnc2)CCN1C[C@@H](O)C[C@@H](Cc1ccccc1)C(=O)N[C@H]1c2ccccc2C[C@H]1O [Indinavir]
Total No. of Resistant Viruses [2]: 8

CC(C)c1nc(CN(C)C(=O)N[C@H](C(=O)N[C@@H](Cc2ccccc2)C[C@H](O)[C@H](Cc2ccccc2)NC(=O)OCc2cncs2)C(C)C)cs1 [Ritonavir]
Total No. of Resistant Viruses [2]: 10

CCOC(=O)COP(=O)(COc1ccc(CC(NC(=O)OC2COC3OCCC23)C(O)CN(CC(C)C)S(=O)(=O)c2ccc(OC)cc2)cc1)OCC(=O)OCC (centres unmarked) [drawing 607 R1=Glc-Et R2=Glc-Et]
EC50 [1, 4]: 500 to 5000 nM
I84V/L90M fold change [3, 5]: − (≦3)

CCOP(=O)(COc1ccc(CC2C(O)C(O)C(Cc3ccc(OC)cc3)N(Cc3cccc(N)c3)C(=O)N2Cc2cccc(N)c2)cc1)OCC (centres unmarked) [OCH3, Ph-mNH2, OCH2PO3Et2]
EC50 (WT): 63 nM

O=C1N(Cc2ccccc2)[C@H](Cc2ccccc2)[C@H](O)[C@@H](O)[C@@H](Cc2ccccc2)N1Cc1ccc2[nH]ncc2c1 [reference compound]
EC50 (WT): 193 nM
EC50 (84V90M): 2310 nM

CC(C)CN(CC(O)C(Cc1ccc(O)cc1)NC(=O)OC1COC2OCCC12)S(=O)(=O)c1ccc(OCP(=O)(O)O)cc1 (centres unmarked) [OH, OH]
EC50 [1, 4]: > 5000 nM

Nc1n[nH]c2ccc(CN3C(=O)N(CCCOCP(=O)(O)O)C(Cc4ccccc4)C(O)C(O)C3Cc3ccccc3)cc12 (centres unmarked) [OCH2PO3H2]
EC50 (WT; MT-4, WT, read-out: Cell-based assay (MT-4) EC50/nM WT): 1070 nM
EC50 (84V90M): > 600 nM

CCCCN1C(=O)N(Cc2ccc3[nH]nc(N)c3c2)C(Cc2ccccc2)C(O)C(O)C1Cc1ccccc1 (centres unmarked) [DMP-851]
EC50 (WT): 54 nM

CCOC(=O)COP(=O)(COc1ccc(CC(NC(=O)OC2COC3OCCC23)C(O)CN(CC(C)C)S(=O)(=O)c2ccc(OC)cc2)cc1)Oc1ccccc1 (centres unmarked) [drawing 609 R1=OPh R2=Glc-Et]
EC50 ([1]; Human immunodeficiency virus 1, IIIB, MT2, Table 10, class symbols): < 50 nM
I84V/L90M fold change [3, 5]: − (≦3)

COc1ccc(S(=O)(=O)N(CC(C)C)C[C@@H](O)[C@H](Cc2ccccc2)NC(=O)O[C@H]2CO[C@H]3OCC[C@H]32)cc1 [Example 94-003]
Total No. of Resistant Viruses [2]: 3

CC(C)CN(C[C@@H](O)[C@H](Cc1ccc(OCP(=O)(OCc2ccccc2)OC(C)C(=O)OCc2ccccc2)cc1)NC(=O)O[C@H]1CO[C@H]2OCC[C@H]21)S(=O)(=O)c1ccc(OCc2ccccc2)cc1 (some centres unmarked)
EC50 ([1]; read-out: EC50): 500 to 5000 nM
